From patent publication US20240269227A1, “CALCIUM-SENSING RECEPTOR AGONIST COMPOSITION AND APPLICATION THEREOF” (Beijing Tuo Jie Biopharmaceutical Co. Ltd., priority 2021, published 2024)
Where a SMILES comes first, the peptide text is derived from it. [ ]: non-standard residue; d: D form. The star is where a group is joined. Cys(free,S-linked) = N[C@@H](CS*)C(=O)O; dAbu = CC[C@@H](N)C(=O)O

Legend:
human red blood cells = experiment: Hemolytic effect on human red blood cells in vitro; details: compound of formula (I) at 100 μg/mL; 37° C. for 1 h; absorbance at 540 nm; FIG. 1
[1] = system: rat peritoneal mast cells; experiment: In vitro histamine release in rat peritoneal mast cells; type: cell-based; details: final concentration 10 μM
Procedure: To evaluate the in vitro histamine release levels induced by some of the test example compounds, rat peritoneal mast cells were collected by lavaging rat peritoneum with a lavage buffer (cold HBSS+25 mM HEPES containing heparin 5 U/mL, pH 7.4). After collection, the cells were centrifuged, and the lavage buffer was discarded. The cells were resuspended and washed twice with a stimulation buffer (HBSS+25 mM HEPES+1 mM CaCl2), pH 7.4). The cells were plated at a density of 10^5 cell/well (200 μL/well) and incubated at 37° C. for 15 min with positive control compound 48/80 (final concentration: 4 μg/mL), test example compound (final concentration: 10 μM) or vehicle control. The cells were centrifuged, and cell supernatant was collected and tested for histamine concentration according to LDN Histamine ELISA kit (BAE-1000) instructions.

normal rats = experiment: In vivo efficacy in a normal rat model after a single dose; parameters: species or system rat (Sprague Dawley); details: 3 mg/kg intravenous
Procedure: SPF normal adult rats (Sprague Dawley, or SD) with weight of 250-350 g were fed with normal diet in an animal room for 7 days. Rats were randomized into groups of 6, half female and half male, and numbered. The day before the start of the experiment, 540 μL of blood was collected from each rat, and the plasma parathyroid hormone levels and the serum calcium ion concentration were measured as control values before administration. […] The plasma parathyroid hormone levels were measured using the Rat Intact PTH ELISA Kit (Quidel—Immunotopics, Cat. #: 60-2500; ELISA: Enzyme-linked immunosorbent assay) according to the kit instructions. […] The absorbance at 450 nm in each well was detected within 10 min after the addition of the ELISA terminating solution, while the absorbance at 620 nm was subtracted as background. A mixture of horseradish peroxidase ELISA substrate 150 μL and ELISA terminating solution 100 μL was used as the blank control in the absorbance detection. A standard curve according to the absorbance of the reference standard was plotted, and the actual plasma parathyroid hormone concentration was calculated according to the absorbance of other samples and the standard curve. […]

Compound	hemolytic effect on red blood cells (human red blood cells)	histamine release levels in rat peritoneal mast cells in vitro relative to the etelcalcetide [1]	Relative fold of histamine release in vitro ([1]; 37° C. 15 min, relative to PBS buffer)	serum calcium ion levels (normal rats; FIG. 3)	plasma parathyroid hormone levels (normal rats; within 4 h, FIG. 2)
polyethylene glycol octyl phenyl ether	significant hemolytic effect				
CC[C@@H](NC(=O)[C@@H](CCCNC(=N)N)NC(=O)[C@@H](CCCNC(=N)N)NC(=O)[C@@H](CSSC[C@H](N)C(=O)O)NC(C)=O)C(=O)N[C@H](CCCNC(=N)N)C(=O)N[C@H](C)C(=O)N[C@H](CCCNC(=N)N)C(N)=O [Compound of formula (I), Ac-c(C)-r-r-(D-Abu)-r-a-r-NH2] (Ac-[dC](Cys(free,S-linked))[dR][dR][dAbu][dR][dA][dR]-NH2)		greatly reduced	0.97	correspondingly reduced	completely reduced
